In patent US10858367B2, “Compounds” (GLAXOSMITHKLINE INTELLECTUAL PROPERTY DEVELOPMENT LIMITED, priority 2017, dated 2020):

What follows are molecules tested against T1, LRRK2 Ser935 phosphorylation in SH-SY5Y cells over-expressing recombinant full length LRRK2 (Homo sapiens, UniProt Q5S007) (assay: Recombinant cellular LRRK2 AlphaScreen assay). Settings: human neuroblastoma SH-SY5Y cells, BacMam full length LRRK2, 60 minutes with compound, read-out: pIC50 in the recombinant cellular LRRK2 AlphaScreen assay (converted).
T1 construct: A BacMam virus expressing full length recombinant LRRK2 was purchased from Invitrogen; host or cells: SH-SY5Y human neuroblastoma cells transduced with BacMam LRRK2 virus
T1 sequence (Q5S007 whole entry): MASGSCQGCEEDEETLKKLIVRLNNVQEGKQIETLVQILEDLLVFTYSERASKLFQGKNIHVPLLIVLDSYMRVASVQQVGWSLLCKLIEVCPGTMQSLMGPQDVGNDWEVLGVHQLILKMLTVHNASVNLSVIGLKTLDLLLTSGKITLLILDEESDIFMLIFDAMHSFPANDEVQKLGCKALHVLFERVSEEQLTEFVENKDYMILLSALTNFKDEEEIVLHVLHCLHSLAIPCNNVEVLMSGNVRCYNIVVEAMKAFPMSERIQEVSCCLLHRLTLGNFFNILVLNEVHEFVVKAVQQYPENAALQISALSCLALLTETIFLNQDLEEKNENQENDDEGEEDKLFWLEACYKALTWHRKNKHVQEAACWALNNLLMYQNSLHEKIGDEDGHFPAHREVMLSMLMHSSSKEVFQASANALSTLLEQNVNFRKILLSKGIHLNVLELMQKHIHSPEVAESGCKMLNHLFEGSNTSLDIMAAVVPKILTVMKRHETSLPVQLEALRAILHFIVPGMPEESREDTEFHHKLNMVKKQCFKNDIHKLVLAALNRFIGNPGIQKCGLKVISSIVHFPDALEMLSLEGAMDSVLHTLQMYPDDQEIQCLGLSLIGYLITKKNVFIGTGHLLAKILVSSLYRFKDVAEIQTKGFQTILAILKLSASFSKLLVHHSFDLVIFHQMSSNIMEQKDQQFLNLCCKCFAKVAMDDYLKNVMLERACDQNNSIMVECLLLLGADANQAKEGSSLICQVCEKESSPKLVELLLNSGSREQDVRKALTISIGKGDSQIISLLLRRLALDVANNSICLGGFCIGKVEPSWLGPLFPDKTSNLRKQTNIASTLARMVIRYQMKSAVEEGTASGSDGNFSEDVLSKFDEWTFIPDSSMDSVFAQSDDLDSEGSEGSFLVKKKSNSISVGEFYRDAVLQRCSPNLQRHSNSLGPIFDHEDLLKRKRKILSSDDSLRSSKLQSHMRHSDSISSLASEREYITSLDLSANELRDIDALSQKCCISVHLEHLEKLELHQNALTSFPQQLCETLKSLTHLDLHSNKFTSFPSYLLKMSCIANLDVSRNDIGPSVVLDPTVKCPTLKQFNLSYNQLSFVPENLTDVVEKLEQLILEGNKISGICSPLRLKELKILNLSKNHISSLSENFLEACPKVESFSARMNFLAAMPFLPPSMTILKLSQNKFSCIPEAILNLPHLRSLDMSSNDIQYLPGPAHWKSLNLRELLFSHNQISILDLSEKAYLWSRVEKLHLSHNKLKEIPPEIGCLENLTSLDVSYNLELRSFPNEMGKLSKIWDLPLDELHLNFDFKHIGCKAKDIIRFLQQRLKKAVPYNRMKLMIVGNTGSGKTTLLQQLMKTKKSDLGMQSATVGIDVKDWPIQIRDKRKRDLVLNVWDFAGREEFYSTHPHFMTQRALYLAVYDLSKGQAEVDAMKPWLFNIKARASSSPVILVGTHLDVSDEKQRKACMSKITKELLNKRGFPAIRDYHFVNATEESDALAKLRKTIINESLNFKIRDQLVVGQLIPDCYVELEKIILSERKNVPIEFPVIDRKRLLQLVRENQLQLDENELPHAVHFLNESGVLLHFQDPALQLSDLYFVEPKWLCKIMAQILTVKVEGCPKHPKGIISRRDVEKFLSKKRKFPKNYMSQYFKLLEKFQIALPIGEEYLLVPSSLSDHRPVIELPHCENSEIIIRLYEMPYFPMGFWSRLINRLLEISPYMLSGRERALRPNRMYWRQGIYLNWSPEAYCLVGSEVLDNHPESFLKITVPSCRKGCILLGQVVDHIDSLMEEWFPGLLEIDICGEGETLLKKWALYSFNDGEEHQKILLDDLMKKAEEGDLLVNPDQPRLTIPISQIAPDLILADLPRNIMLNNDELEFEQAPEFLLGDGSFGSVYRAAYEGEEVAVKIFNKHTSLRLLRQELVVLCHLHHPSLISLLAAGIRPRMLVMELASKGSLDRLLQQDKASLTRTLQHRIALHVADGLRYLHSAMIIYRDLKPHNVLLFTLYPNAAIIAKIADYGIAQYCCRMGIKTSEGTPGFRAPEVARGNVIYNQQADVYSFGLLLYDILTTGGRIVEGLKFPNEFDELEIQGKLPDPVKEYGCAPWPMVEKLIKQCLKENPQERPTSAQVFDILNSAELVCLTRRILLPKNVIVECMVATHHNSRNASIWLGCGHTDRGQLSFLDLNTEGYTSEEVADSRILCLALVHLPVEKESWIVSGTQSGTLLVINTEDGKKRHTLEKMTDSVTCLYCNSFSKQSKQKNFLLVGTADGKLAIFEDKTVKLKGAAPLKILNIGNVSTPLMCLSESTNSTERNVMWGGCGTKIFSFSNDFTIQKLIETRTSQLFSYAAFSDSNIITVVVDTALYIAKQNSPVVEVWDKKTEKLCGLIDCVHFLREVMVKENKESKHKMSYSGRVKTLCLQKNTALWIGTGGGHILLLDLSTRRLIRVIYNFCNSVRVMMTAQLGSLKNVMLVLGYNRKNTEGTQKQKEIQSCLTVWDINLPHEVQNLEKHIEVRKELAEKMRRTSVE
Assay type: cell-based
Text: b. Recombinant Cellular LRRK2 AlphaScreen Assay
To determine the activity of compounds against LRRK2 kinase activity in cells, the observed LRRK2 kinase-dependent modulation of LRRK2 Ser 935 phosphorylation (Dzamko et al., 2010, Biochem. J. 430: 405-413) was utilized to develop a quantitative 384 well plate-based immunoassay of LRRK2 Ser935 phosphorylation in the human neuroblastoma cell line SH-SY5Y, engineered to over-express recombinant full length LRRK2 protein.
A BacMam virus expressing full length recombinant LRRK2 was purchased from Invitrogen and amplified by inoculation of SF-9 cells at MOI 0.3 for 4-5 days in Sf-900 III SFM medium supplemented with 3% fetal bovine serum. Infected cell cultures were then centrifuged at 2000 g for 20 minutes, viral supernatant titer determined by anti-gp64 plaque assay and stored at 4° C.
Affinity-purified anti-phospho LRRK2 Ser935 sheep polyclonal antibody (Dzamko et al., 2010, Biochem. J. 430: 405-413) was biotinylated by standard methods (PerkinElmer). Anti-LRRK2 rabbit polyclonal antibody was purchased from Novus Biologicals. AlphaScreen Protein A IgG Kit (including acceptor and donor beads) was purchased from Perkin Elmer.
SH-SY5Y cells were grown in DMEM/F12 medium with 10% dialysed fetal bovine serum and harvested by treatment with 0.5% trypsin-EDTA for 5 minutes at 37° C. followed by centrifugation at 1000 rpm for 4 minutes. The cell pellet was resuspended in Opti-MEM reduced serum media (Invitrogen) at 200,000 cells/ml and mixed with the BacMam LRRK2 virus at MOI=50. 50 μl cell solutions were then dispensed to each well of a 384-well plate and incubated at 37° C., 5% CO2 for 24 hours.
Serial dilutions of test compounds were prepared in Opti-MEM reduced serum media (Invitrogen) and 5.6 ul transferred from compound plate to cell assay plate to achieve a top final assay concentration of 10 uM. DMSO was used in certain wells as controls. Cells were incubated at 37° C., 5% CO2 for 60 minutes. The medium was then removed and cells lysed by addition of 20 ul cell lysis buffer (Cell Signaling Technology) and incubation at 4° C. for 20 minutes. 10 ul of antibody/acceptor bead mix [(1/1000 biotinylated-pS935 LRRK2 antibody, 1/1000 total-LRRK2 antibody, 1/100 Acceptor beads in AlphaScreen detection buffer (25 mM Hepes (pH 7.4), 0.5% Triton X-100, 1 mg/ml Dextran 500 and 0.1% BSA)] was then added to each well and plates incubated for 2 hours at ambient temperature in the dark. 10 μl of donor beads solution (1/33.3 donor beads in AlphaScreen detection buffer) was then added to each well. Following incubation for a further 2 hours at ambient temperature in the dark, plates were read on an EnVision™ plate reader at emission 520-620 nm with excitation 680 nm. Dose response curve data was based on sigmoidal dose-response model.
`COc1nc(N2C[C@@H]3C[C@H]2CO3)cc(-n2ncc3ccc(OC4(C)CC4)cc32)n1` [Example E4, (1S,4S)-5-(2-methoxy-6-(6-(1-methylcyclopropoxy)-1H-indazol-1-yl)pyrimidin-4-yl)-2-oxa-5-azabicyclo[2.2.1]heptane] was tested, and the IC50 was ≤ 1 µM.
In the case of `Cc1nc(N2C[C@H]3C[C@@H]2CO3)cc(-n2ncc3cc(C)c(C4C5CN(C6CCOC6)CC54)cc32)n1` (stereo partly drawn) [Example E179, (1R,4R)-5-(2-methyl-6-(5-methyl-6-(3-((S)-tetrahydrofuran-3-yl)-3-azabicyclo-[3.1.0]hexan-6-yl)-1H-indazol-1-yl)pyrimidin-4-yl)-2-oxa-5-azabicyclo[2.2.1]heptane], the IC50 is reported as ≤ 1 µM.
For `[2H]C([2H])([2H])Oc1nc(N2C[C@@H]3C[C@H]2CO3)cc(-n2ncc3cc(C)c(C4CCN(C5COC5)CC4)cc32)n1` [Example E73, (1S,4S)-5-(6-(5-methyl-6-(1-(oxetan-3-yl)piperidin-4-yl)-1H-indazol-1-yl)-2-(trideuteriummethoxy)pyrimidin-4-yl)-2-oxa-5-azabicyclo[2.2.1]heptane], the IC50 was ≤ 1 µM.
`COc1nc(N2CC3CC2CO3)cc(-n2ncc3cc(C)c(C4CCN(C5CCOC5)CC4O)cc32)n1` (single isomer, unassigned) [Example E135] was tested, and the IC50 was ≤ 1 µM.
In the case of `COc1nc(N2CC3CC2CO3)cc(-n2ncc3cc(C)c(C4CCN(CCO)CC4F)cc32)n1` (single isomer, unassigned) [Example E18], the IC50 is reported as ≤ 0.01 µM.
`COc1nc(N2C[C@H]3C[C@@H]2CO3)cc(-n2ncc3cc(C)c(C4CCC(N5CCOCC5)CC4)cc32)n1` (single isomer, unassigned) [Example E71] was tested, and the IC50 was ≤ 1 µM.
With `COCCN1CCC(c2cc3c(cnn3-c3cc(N4C[C@H]5C[C@@H]4CO5)nc(OC)n3)cc2C)CC1` [Example E35, (1R,4R)-5-(2-methoxy-6-(6-(1-(2-methoxyethyl)piperidin-4-yl)-5-methyl-1H-indazol-1-yl)pyrimidin-4-yl)-2-oxa-5-azabicyclo[2.2.1]heptane] the IC50 was ≤ 1 µM.
In the case of `COc1nc(N2CC3CCC(C2)O3)cc(-n2ncc3cc(C)c(C4CCN(C5COC5)CC4)cc32)n1` [Example E41, 3-(2-Methoxy-6-(5-methyl-6-(1-(oxetan-3-yl)piperidin-4-yl)-1H-indazol-1-yl)pyrimidin-4-yl)-8-oxa-3-azabicyclo[3.2.1]octane], the IC50 is reported as ≤ 1 µM.
`Cc1nc(N2C[C@H]3C[C@@H]2CO3)cc(-n2ncc3cc(Cl)c(N4CCC(C)(O)CC4)cc32)n1` [Example E34, 1-(1-(6-((1R,4R)-2-oxa-5-azabicyclo[2.2.1]heptan-5-yl)-2-methylpyrimidin-4-yl)-5-chloro-1H-indazol-6-yl)-4-methylpiperidin-4-ol] was tested, and the IC50 was ≤ 1 µM.
In the case of `Cc1nc(N2C[C@@H]3C[C@H]2CO3)cc(-n2ncc3cc(Cl)c(N4CCC(C)(O)C4)cc32)n1` (single isomer, unassigned) [Example E47], the IC50 is reported as ≤ 1 µM.
For `Cc1nc(N2C[C@@H]3C[C@H]2CO3)cc(-n2ncc3cc(C)c(C4CCN(C(=O)CO)CC4)cc32)n1` [Example E54, 1-(4-(1-(6-((1S,4S)-2-oxa-5-azabicyclo[2.2.1]heptan-5-yl)-2-methylpyrimidin-4-yl)-5-methyl-1H-indazol-6-yl)piperidin-1-yl)-2-hydroxyethanone], the IC50 was ≤ 1 µM.
`COc1nc(N2C[C@@H]3C[C@H]2CO3)cc(-n2ncc3cc(Cl)c(C4CCN(C5COC5)CC4)cc32)n1` [Example E6, (1S,4S)-5-(6-(5-chloro-6-(1-(oxetan-3-yl)piperidin-4-yl)-1H-indazol-1-yl)-2-methoxypyrimidin-4-yl)-2-oxa-5-azabicyclo[2.2.1]heptane] was tested, and the IC50 was ≤ 1 µM.
For `Cc1nc(N2CC3CC2CC3C(=O)O)cc(-n2ncc3cc(C)c(C4CCOCC4)cc32)n1` (single isomer, unassigned) [Example E82, 2-{2-Methyl-6-[5-methyl-6-(tetrahydro-pyran-4-yl)-indazol-1-yl]-pyrimidin-4-yl}-2-aza-bicyclo[2.2.1]heptane-5-carboxylic Acid], the IC50 was ≤ 1 µM.
For `Cc1nc(N2C[C@H]3C[C@@H]2CO3)cc(-n2ncc3cc(Cl)c(N4CCC(C)(O)C4)cc32)n1` (single isomer, unassigned) [Example E49], the IC50 was ≤ 1 µM.
In the case of `[2H]C1(N2CCC(c3cc4c(cnn4-c4cc(N5C[C@H]6C[C@@H]5CO6)nc(OC)n4)cc3C)CC2)COC1` [Example E56, (1R,4R)-5-(6-(6-(1-(3-deuterooxetan-3-yl)piperidin-4-yl)-5-methyl-1H-indazol-1-yl)-2-methoxypyrimidin-4-yl)-2-oxa-5-azabicyclo[2.2.1]heptane], the IC50 is reported as ≤ 0.01 µM.
Work on `Cc1nc(N2C[C@@H]3C[C@H]2CN3C2COC2)cc(-n2ncc3cc(C)c([C@H]4CC[C@](C)(O)CC4)cc32)n1` [Example E32, Trans-1-methyl-4-(5-methyl-1-(2-methyl-6-((1S,4S)-5-(oxetan-3-yl)-2,5-diazabicyclo[2.2.1]heptan-2-yl)pyrimidin-4-yl)-1H-indazol-6-yl)cyclohexanol] yielded an IC50 of 1.86 µM.
With `COc1nc(N2C[C@@H]3C[C@H]2CO3)cc(-n2ncc3cc(C)c(C4CCN(CCF)CC4)cc32)n1` [Example E38, (1S,4S)-5-(6-(6-(1-(2-fluoroethyl)piperidin-4-yl)-5-methyl-1H-indazol-1-yl)-2-methoxypyrimidin-4-yl)-2-oxa-5-azabicyclo[2.2.1]heptane] the IC50 was ≤ 1 µM.
With `COc1nc(N2CC3CC(C2)C3C(=O)O)cc(-n2ncc3cc(C)c(OC(C)C)cc32)n1` (stereo not shown) [Example E81, 3-(6-(6-isopropoxy-5-methyl-1H-indazol-1-yl)-2-methoxypyrimidin-4-yl)-3-azabicyclo[3.1.1]heptane-6-carboxylic Acid] the IC50 was ≤ 0.01 µM.
For `COc1nc(N2C[C@@H]3C[C@H]2CO3)cc(-n2ncc3cc(C)c(C4CCN(CCO)CC4)cc32)n1` [Example E28, 2-(4-(1-(6-((1S,4S)-2-oxa-5-azabicyclo[2.2.1]heptan-5-yl)-2-methoxypyrimidin-4-yl)-5-methyl-1H-indazol-6-yl)piperidin-1-yl)ethanol], the IC50 was ≤ 1 µM.
In the case of `Cc1nc(N2CC3CC2CO3)cc(-n2ncc3cc(C)c([C@H]4CC[C@](C)(O)CC4)cc32)n1` (single isomer, unassigned) [Example E10], the IC50 is reported as ≤ 1 µM.
In the case of `Cc1nc(N2C[C@@H]3C[C@H]2CO3)cc(-n2ncc3cc(C)c([C@H]4CC[C@](C)(O)CC4)cc32)n1` [Example E8, Trans-4-(1-(6-((1S,4S)-2-oxa-5-azabicyclo[2.2.1]heptan-5-yl)-2-methylpyrimidin-4-yl)-5-methyl-1H-indazol-6-yl)-1-methylcyclohexanol], the IC50 is reported as ≤ 1 µM.
In the case of `Cc1nc(N2CC3CC2CC3C(=O)O)cc(-n2ncc3cc(C)c(C4CCC(C)(O)CC4)cc32)n1` (single isomer, unassigned) [Example E75, 2-(6-(6-(cis-4-hydroxy-4-methylcyclohexyl)-5-methyl-1H-indazol-1-yl)-2-methylpyrimidin-4-yl)-2-azabicyclo[2.2.1]heptane-5-carboxylic Acid], the IC50 is reported as ≤ 0.01 µM.
`COc1nc(N2CC3CC(C2)O3)cc(-n2ncc3cc(C)c(C4CCN(C5COC5)CC4)cc32)n1` [Example E43, 3-(2-Methoxy-6-(5-methyl-6-(1-(oxetan-3-yl)piperidin-4-yl)-1H-indazol-1-yl)pyrimidin-4-yl)-6-oxa-3-azabicyclo[3.1.1]heptane] was tested, and the IC50 was ≤ 1 µM.
`Cc1nc(N2CC3CCC(C2)O3)cc(-n2ncc3cc(C)c(C4CCN(C5COC5)CC4)cc32)n1` [Example E42, 3-(2-Methyl-6-(5-methyl-6-(1-(oxetan-3-yl)piperidin-4-yl)-1H-indazol-1-yl)pyrimidin-4-yl)-8-oxa-3-azabicyclo[3.2.1]octane] was tested, and the IC50 was ≤ 1 µM.
With `[2H]C1(N2CCC(c3cc4c(cnn4-c4cc(N5C[C@@H]6C[C@H]5CO6)nc(OC)n4)cc3C)CC2)COC1` [Example E57, (1S,4S)-5-(6-(6-(1-(3-deuterooxetan-3-yl)piperidin-4-yl)-5-methyl-1H-indazol-1-yl)-2-methoxypyrimidin-4-yl)-2-oxa-5-azabicyclo[2.2.1]heptane] the IC50 was ≤ 1 µM.
